Reference: patent US20230295118A1 (EnhancedBio Inc., priority 2022, published 2023)
Read-outs that look alike come from different tables or passages of the source.

Experiments:
Type in all cases: cell-based
CDK6 = target: T1, CDK6 (Homo sapiens, UniProt Q00534); experiment: CDK6 degradation (DC50, Dmax)
T1 construct: endogenous in cells

[1] = system: mantle cell lymphoma cell (Mino or JeKo-1); experiment: Antiproliferative effect, MTS cell viability assay
Outline: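 MTS read-out (formazan absorbance at 490 nm) after 72 h exposure of Mino cells to 0–1 μM compound (0.0001, 0.001, 0.01, 0.1, 1 μM). Palbociclib and abemaciclib served as positive controls.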

CDK4 = target: T2, CDK4 (Homo sapiens, UniProt P11802); experiment: CDK4 degradation (DC50, Dmax)
T2 construct: endogenous in cells

[2] = 72 h, mantle cell lymphoma cell (Mino or JeKo-1), MTS assay, read-out: IC50 (anti-proliferation)
[3] = mantle cell lymphoma cell (Mino or JeKo-1); MTS assay, 72 h; read-out: IC50 (anti-proliferation)

T2 sequence (P11802 whole entry): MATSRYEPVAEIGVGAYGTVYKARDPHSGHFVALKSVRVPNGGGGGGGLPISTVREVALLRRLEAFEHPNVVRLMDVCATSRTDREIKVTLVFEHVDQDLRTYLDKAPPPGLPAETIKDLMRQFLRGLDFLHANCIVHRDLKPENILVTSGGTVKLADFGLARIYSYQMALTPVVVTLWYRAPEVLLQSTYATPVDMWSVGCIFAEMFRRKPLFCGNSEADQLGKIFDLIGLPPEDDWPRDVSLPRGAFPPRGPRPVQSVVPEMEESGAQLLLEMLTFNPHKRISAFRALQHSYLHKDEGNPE
T1 sequence (Q00534 whole entry): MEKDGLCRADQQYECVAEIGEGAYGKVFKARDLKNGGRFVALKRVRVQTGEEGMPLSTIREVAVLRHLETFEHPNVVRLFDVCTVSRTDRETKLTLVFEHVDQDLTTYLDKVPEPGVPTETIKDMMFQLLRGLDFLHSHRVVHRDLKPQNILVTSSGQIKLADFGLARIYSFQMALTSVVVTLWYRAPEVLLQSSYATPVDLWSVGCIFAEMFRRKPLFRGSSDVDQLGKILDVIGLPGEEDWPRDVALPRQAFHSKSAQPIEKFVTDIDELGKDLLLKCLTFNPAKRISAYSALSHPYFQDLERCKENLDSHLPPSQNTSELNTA

Structure (SMILES)	DC50 (CDK6) [nM]	Dmax (CDK6) [%]	IC50 [1, 2] [nM]	DC50 (CDK4) [nM]	Dmax (CDK4) [%]	IC50 [1, 3] [nM]	Dmax CDK6 (CDK6)	Dmax CDK4 (CDK4)
CC(=O)c1c(C)c2cnc(Nc3ccc(N4CCN(C5CCN(C(=O)N6CCN(c7ccc8c(c7)C(=O)N(C7CCC(=O)NC7=O)C8=O)CC6)CC5)CC4)cn3)nc2n(C2CCCC2)c1=O (stereo not drawn) [Compound 35, 5-(4-(4-(4-(6-((6-acetyl-8-cyclopentyl-5-methyl-7-oxo-7,8-dihydropyrido[2,3-d]pyrimidin-2-yl)amino)pyridin-3-yl)piperazin-1-yl)piperidine-1-carbonyl)piperazin-1-yl)-2-(2,6-dioxopiperidin-3-yl)isoindoline-1,3-dione]	> 200	> 60		50 to 200	> 60	50 to 200		
CC(=O)c1c(C)c2cnc(Nc3ccc(N4CCN(CCN5CCC(c6ccc7c(c6)C(=O)N(C6CCC(=O)NC6=O)C7=O)CC5)CC4)cn3)nc2n(C2CCCC2)c1=O (stereo not drawn) [Compound 71, 5-(1-(2-(4-(6-((6-acetyl-8-cyclopentyl-5-methyl-7-oxo-7,8-dihydropyrido[2,3-d]pyrimidin-2-yl)amino)pyridin-3-yl)piperazin-1-yl)ethyl)piperidin-4-yl)-2-(2,6-dioxopiperidin-3-yl)isoindoline-1,3-dione]	> 200	> 60	50 to 200	> 200	> 60			
CC(=O)c1c(C)c2cnc(Nc3ccc(N4CCN(C(=O)N5CCC(CN6CCC(c7ccc8c(c7)C(=O)N(C7CCC(=O)NC7=O)C8=O)CC6)CC5)CC4)cn3)nc2n(C2CCCC2)c1=O (stereo not drawn) [Compound 17, 5-(1-((1-(4-(6-((6-acetyl-8-cyclopentyl-5-methyl-7-oxo-7,8-dihydropyrido[2,3-d]pyrimidin-2-yl)amino)pyridin-3-yl)piperazine-1-carbonyl)piperidin-4-yl)methyl)piperidin-4-yl)-2-(2,6-dioxopiperidin-3-yl)isoindoline-1,3-dione]	50 to 200	> 50	50 to 200	50 to 200	> 50			
CC(=O)c1c(C)c2cnc(Nc3ccc(N4CCN(C(=O)C5CCN(c6ccc(C(=O)NC7CCC(=O)NC7=O)cc6)CC5)CC4)cn3)nc2n(C2CCCC2)c1=O (stereo not drawn) [Compound 116, 4-(4-(4-(6-((6-acetyl-8-cyclopentyl-5-methyl-7-oxo-7,8-dihydropyrido[2,3-d]pyrimidin-2-yl)amino)pyridin-3-yl)piperazine-1-carbonyl)piperidin-1-yl)-N-(2,6-dioxopiperidin-3-yl)benzamide]	50 to 200	> 80	50 to 200	50 to 200	> 80			
CC(=O)c1c(C)c2cnc(Nc3ccc(N4CCN(C5CN(c6cccc7c6C(=O)N(C6CCC(=O)NC6=O)C7=O)C5)CC4)cn3)nc2n(C2CCCC2)c1=O (stereo not drawn) [Compound 79, 4-(3-(4-(6-((6-acetyl-8-cyclopentyl-5-methyl-7-oxo-7,8-dihydropyrido[2,3-d]pyrimidin-2-yl)amino)pyridin-3-yl)piperazin-1-yl)azetidin-1-yl)-2-(2,6-dioxopiperidin-3-yl)isoindoline-1,3-dione]	50 to 200	> 60	50 to 200	50 to 200	> 60			
Cc1nc2c(F)cc(-c3nc(Nc4ccc(CN5CCN(CCNc6cccc7c6CN(C6CCC(=O)NC6=O)C7=O)CC5)cn4)ncc3F)cc2n1C(C)C (stereo not drawn) [Compound 93]	50 to 200			50 to 200		< 50	A (A: >80%)	A (A: >80%)
CC(=O)c1c(C)c2cnc(Nc3ccc(N4CCN(C(=O)N5CCC(C6CCN(c7ccc8c(c7)C(=O)N(C7CCC(=O)NC7=O)C8=O)CC6)CC5)CC4)cn3)nc2n(C2CCCC2)c1=O (stereo not drawn) [Compound 9, 5-(1′-(4-(6-((6-acetyl-8-cyclopentyl-5-methyl-7-oxo-7,8-dihydropyrido[2,3-d]pyrimidin-2-yl)amino)pyridin-3-yl)piperazine-1-carbonyl)-[4,4′-bipiperidin]-1-yl)-2-(2,6-dioxopiperidin-3-yl)isoindoline-1,3-dione]	> 200	> 50	> 200	> 200	> 50			

Further lines, with some results ahead:

DC50 (CDK6) [nM]	Dmax (CDK6) [%]	IC50 [1, 2] [nM]	DC50 (CDK4) [nM]	Dmax (CDK4) [%]	Structure (SMILES)	IC50 [1, 3] [nM]	Dmax CDK6 (CDK6)	Dmax CDK4 (CDK4)
50 to 200	> 80	50 to 200	50 to 200	> 60	CC(=O)c1c(C)c2cnc(Nc3ccc(N4CCN(CCN5CCN(c6ccc7c(c6)CN(C6CCC(=O)NC6=O)C7=O)CC5)CC4)cn3)nc2n(C2CCCC2)c1=O (stereo not drawn) [Compound 68, 3-(5-(4-(2-(4-(6-((6-acetyl-8-cyclopentyl-5-methyl-7-oxo-7,8-dihydropyrido[2,3-d]pyrimidin-2-yl)amino)pyridin-3-yl)piperazin-1-yl)ethyl)piperazin-1-yl)-1-oxoisoindolin-2-yl)piperidine-2,6-dione]			
50 to 200	> 60	50 to 200	50 to 200	> 60	CC(=O)c1c(C)c2cnc(Nc3ccc(N4CCN(CCN(C)c5cccc6c5C(=O)N(C5CCC(=O)NC5=O)C6=O)CC4)cn3)nc2n(C2CCCC2)c1=O (stereo not drawn) [Compound 61, 4-((2-(4-(6-((6-acetyl-8-cyclopentyl-5-methyl-7-oxo-7,8-dihydropyrido[2,3-d]pyrimidin-2-yl)amino)pyridin-3-yl)piperazin-1-yl)ethyl)(methyl)amino)-2-(2,6-dioxopiperidin-3-yl) isoindoline-1,3-dione]			
< 50	> 80	< 50	< 50	> 80	Cc1nc2c(F)cc(-c3nc(Nc4ccc(CN5CCN(C6CCN(c7ccc(N8CCC(=O)NC8=O)cc7)CC6)CC5)cn4)ncc3F)cc2n1C(C)C [Compound 109, 1-(4-(4-(4-((6-((5-fluoro-4-(4-fluoro-1-isopropyl-2-methyl-1H-benzo[d]imidazol-6-yl)pyrimidin-2-yl)amino)pyridin-3-yl)methyl)piperazin-1-yl)piperidin-1-yl)phenyl) dihydropyrimidine-2,4(1H,3H)-dione]			
< 50	> 80	< 50	< 50	> 80	Cc1nc2c(F)cc(-c3nc(Nc4ccc(CN5CCN(CC6CCN(c7ccc8c(c7)C(=O)N(C7CCC(=O)NC7=O)C8=O)CC6)CC5)cn4)ncc3F)cc2n1C(C)C (stereo not drawn) [Compound 149, 2-(2,6-dioxopiperidin-3-yl)-5-(4-((4-((6-((5-fluoro-4-(4-fluoro-1-isopropyl-2-methyl-1H-benzo[d]imidazol-6-yl)pyrimidin-2-yl)amino)pyridin-3-yl)methyl)piperazin-1-yl)methyl)piperidin-1-yl)isoindoline-1,3-dione]			
< 50	> 80	< 50	< 50	> 80	CC(=O)c1c(C)c2cnc(Nc3ccc(N4CCN(C(=O)C5CN(c6ccc7c(c6)C(=O)N(C6CCC(=O)NC6=O)C7=O)C5)CC4)cn3)nc2n(C2CCCC2)c1=O (stereo not drawn) [Compound 121, 5-(3-(4-(6-((6-acetyl-8-cyclopentyl-5-methyl-7-oxo-7,8-dihydropyrido[2,3-d]pyrimidin-2-yl)amino)pyridin-3-yl)piperazine-1-carbonyl)azetidin-1-yl)-2-(2,6-dioxopiperidin-3-yl)isoindoline-1,3-dione]			
